Among the data in ChEMBL document CHEMBL5247602, “Developing a Naïve Bayesian Classification Model with PI3Kγ structural features for virtual screening against PI3Kγ: Combining molecular docking and pharmacophore based on multiple PI3Kγ conformations” (Eur J Med Chem, 2022) are inhibition and IC50 values, retold here.

The target in assay [1] is T1, Phosphatidylinositol 4,5-bisphosphate 3-kinase catalytic subunit gamma isoform (Homo sapiens, UniProt P48736). In words: Inhibition of PI3Kgamma (unknown origin) at 10 uM preincubated for 10 mins followed by ATP addition and measured after 60 mins by ADP-Glo assay relative to control. As to conditions: time 70.0 min.
Target sequence in this assay (P48736 whole entry, looked up, canonical isoform): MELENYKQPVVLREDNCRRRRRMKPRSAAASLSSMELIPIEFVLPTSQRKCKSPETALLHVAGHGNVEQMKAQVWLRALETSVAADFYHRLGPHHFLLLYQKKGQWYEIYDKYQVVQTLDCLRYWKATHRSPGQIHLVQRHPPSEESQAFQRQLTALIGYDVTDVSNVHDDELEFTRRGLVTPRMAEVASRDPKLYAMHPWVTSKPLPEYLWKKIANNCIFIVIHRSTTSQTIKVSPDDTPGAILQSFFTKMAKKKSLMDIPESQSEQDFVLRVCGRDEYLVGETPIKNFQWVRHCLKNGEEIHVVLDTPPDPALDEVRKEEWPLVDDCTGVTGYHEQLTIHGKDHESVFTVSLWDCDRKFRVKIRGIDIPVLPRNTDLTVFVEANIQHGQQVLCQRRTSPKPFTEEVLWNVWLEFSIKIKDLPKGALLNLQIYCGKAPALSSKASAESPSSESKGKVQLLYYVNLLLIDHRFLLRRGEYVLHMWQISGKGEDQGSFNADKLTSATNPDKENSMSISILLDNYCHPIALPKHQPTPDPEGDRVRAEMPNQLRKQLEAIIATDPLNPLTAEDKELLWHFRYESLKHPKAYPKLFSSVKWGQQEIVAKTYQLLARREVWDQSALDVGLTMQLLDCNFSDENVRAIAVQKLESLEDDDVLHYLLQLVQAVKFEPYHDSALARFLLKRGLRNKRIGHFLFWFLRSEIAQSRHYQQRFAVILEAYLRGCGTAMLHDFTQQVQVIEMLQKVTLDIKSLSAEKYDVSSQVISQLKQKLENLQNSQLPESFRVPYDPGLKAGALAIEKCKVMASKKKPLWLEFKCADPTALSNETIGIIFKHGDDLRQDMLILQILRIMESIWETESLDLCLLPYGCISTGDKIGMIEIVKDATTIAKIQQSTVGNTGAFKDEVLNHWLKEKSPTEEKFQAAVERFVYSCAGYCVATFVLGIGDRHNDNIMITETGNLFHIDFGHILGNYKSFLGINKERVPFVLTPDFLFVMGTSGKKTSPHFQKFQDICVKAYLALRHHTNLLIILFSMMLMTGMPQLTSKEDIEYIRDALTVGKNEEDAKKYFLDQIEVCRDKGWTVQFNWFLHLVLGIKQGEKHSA
Assay [2] concerns the target T1, Phosphatidylinositol 4,5-bisphosphate 3-kinase catalytic subunit gamma isoform. The assay can be described thus: Inhibition of PI3Kgamma (unknown origin) preincubated for 10 mins followed by ATP addition and measured after 60 mins by ADP-Glo assay.
Target sequence in this assay (P48736 whole entry, canonical isoform): as the sequence (P48736 whole entry, looked up, canonical isoform) above
In assay [3] the target is Phosphatidylinositol 4,5-bisphosphate 3-kinase catalytic subunit alpha isoform (Homo sapiens, UniProt P42336). The assay can be described thus: Inhibition of PI3Kalpha (unknown origin) preincubated for 10 mins followed by ATP addition and measured after 60 mins by ADP-Glo assay.
For assay [4], the target named is Phosphatidylinositol 4,5-bisphosphate 3-kinase catalytic subunit beta isoform (Homo sapiens, UniProt P42338). The assay can be described thus: Inhibition of PI3Kbeta (unknown origin) preincubated for 10 mins followed by ATP addition and measured after 60 mins by ADP-Glo assay.
The target in assay [5] is T2, Phosphatidylinositol 4,5-bisphosphate 3-kinase catalytic subunit delta isoform (Homo sapiens, UniProt O00329).
T2 sequence (O00329 whole entry): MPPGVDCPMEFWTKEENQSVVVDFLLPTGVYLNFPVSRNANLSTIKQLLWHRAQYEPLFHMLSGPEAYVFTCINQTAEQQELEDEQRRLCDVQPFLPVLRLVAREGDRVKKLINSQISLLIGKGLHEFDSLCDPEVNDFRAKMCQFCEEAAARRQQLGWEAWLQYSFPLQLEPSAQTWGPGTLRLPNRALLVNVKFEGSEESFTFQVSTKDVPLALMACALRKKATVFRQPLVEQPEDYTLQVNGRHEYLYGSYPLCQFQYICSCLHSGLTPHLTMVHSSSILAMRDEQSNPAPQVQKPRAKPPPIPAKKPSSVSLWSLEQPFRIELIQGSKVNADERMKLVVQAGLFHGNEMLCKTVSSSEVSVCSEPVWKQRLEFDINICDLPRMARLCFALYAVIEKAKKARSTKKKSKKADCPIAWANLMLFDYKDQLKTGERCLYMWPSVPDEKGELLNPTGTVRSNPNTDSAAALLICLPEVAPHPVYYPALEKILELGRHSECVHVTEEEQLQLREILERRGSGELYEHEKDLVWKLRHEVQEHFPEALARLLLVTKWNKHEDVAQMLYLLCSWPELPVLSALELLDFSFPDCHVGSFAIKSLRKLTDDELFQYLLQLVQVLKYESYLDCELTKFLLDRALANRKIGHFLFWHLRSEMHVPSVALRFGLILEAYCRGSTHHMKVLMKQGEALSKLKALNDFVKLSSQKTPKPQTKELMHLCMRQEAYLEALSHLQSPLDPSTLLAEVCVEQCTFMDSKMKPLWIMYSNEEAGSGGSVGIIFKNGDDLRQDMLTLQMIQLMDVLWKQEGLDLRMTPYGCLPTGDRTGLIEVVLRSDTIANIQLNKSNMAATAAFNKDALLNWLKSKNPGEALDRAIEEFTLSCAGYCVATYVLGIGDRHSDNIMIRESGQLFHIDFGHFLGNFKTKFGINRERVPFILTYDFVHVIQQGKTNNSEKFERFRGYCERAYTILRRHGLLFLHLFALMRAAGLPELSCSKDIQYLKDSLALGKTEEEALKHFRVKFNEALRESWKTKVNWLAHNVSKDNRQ
In words: Inhibition of PI3Kdelta (unknown origin) preincubated for 10 mins followed by ATP addition and measured after 60 mins by ADP-Glo assay.

Assay [6] concerns RAW264.7. In words: Inhibition of PI3K/AKT signalling pathway in mouse RAW264.7 cells assessed as reduction in LPS-stimulated phosphorylation of AKT at Ser473 residue preincubated for 6 hrs followed by LPS stimulation for 6 hrs by Western blot analysis. Type of assay: cell-based. As to conditions: dose 5-20 µM, time 12.0 hrs.
Assay [7] has as its system RAW264.7. The assay can be described thus: Inhibition of PI3K/AKT signalling pathway in mouse RAW264.7 cells assessed as reduction in LPS-stimulated phosphorylation of AKT at Ser473 residue at 5 to 20 uM preincubated with compound followed by LPS stimulation for 6 hrs by Western blot analysis. Type of assay: cell-based. As to conditions: dose 5-20 µM, TDE = time-dependent effect.

In assay [8] the target is Phosphatidylinositol 4,5-bisphosphate 3-kinase catalytic subunit gamma isoform (Mus musculus) (UniProt Q9JHG7). In words: Inhibition of PI3Kgamma in mouse RAW264 cells assessed as reduction in LPS-stimulated TNFalpha mRNA expression preincubated for 6 hrs followed by LPS addition and measured after 24 hrs by RT-PCR analysis. It counts as cell-based. As to conditions: RAW264.7, dose 1.2-10 µM, time 30.0 hrs.

Assay [9] has the same target. In words: Inhibition of PI3Kgamma in mouse RAW264 cells assessed as reduction in LPS-stimulated IL-6 mRNA expression preincubated for 6 hrs followed by LPS addition and measured after 24 hrs by RT-PCR analysis. It counts as cell-based. As to conditions: RAW264.7, dose 1.2-10 µM, time 30.0 hrs.

Sequence of Phosphatidylinositol 4,5-bisphosphate 3-kinase catalytic subunit gamma isoform (Mus musculus) (Q9JHG7 whole entry, looked up, canonical isoform): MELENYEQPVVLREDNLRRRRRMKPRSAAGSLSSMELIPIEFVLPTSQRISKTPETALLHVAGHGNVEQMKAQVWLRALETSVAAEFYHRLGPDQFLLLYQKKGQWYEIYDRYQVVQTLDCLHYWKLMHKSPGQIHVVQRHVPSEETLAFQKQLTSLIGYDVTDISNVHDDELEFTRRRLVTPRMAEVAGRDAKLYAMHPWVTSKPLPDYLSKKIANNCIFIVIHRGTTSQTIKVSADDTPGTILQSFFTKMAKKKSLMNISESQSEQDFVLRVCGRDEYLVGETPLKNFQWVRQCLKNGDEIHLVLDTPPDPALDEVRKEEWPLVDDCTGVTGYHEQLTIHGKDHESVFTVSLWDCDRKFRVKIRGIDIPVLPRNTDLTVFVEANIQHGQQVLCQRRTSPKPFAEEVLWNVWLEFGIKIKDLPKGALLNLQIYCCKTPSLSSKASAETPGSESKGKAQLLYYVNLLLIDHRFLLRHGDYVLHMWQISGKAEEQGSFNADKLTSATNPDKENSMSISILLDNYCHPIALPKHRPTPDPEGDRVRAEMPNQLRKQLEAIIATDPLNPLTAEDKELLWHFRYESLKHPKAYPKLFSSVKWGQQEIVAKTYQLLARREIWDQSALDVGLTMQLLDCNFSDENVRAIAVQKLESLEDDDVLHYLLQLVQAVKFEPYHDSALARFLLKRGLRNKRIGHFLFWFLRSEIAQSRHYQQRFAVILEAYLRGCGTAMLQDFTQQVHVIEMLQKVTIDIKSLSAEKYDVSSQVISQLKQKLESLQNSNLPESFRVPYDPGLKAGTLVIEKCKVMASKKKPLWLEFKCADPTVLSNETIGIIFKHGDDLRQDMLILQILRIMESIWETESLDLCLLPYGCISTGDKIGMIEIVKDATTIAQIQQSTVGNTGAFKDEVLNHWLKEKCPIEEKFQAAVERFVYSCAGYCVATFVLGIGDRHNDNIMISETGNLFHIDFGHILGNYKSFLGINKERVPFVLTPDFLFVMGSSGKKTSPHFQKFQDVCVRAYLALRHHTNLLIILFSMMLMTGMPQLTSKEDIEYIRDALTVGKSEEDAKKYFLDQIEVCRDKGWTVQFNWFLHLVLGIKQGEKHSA
Sequence of Phosphatidylinositol 4,5-bisphosphate 3-kinase catalytic subunit alpha isoform (P42336 whole entry, canonical isoform): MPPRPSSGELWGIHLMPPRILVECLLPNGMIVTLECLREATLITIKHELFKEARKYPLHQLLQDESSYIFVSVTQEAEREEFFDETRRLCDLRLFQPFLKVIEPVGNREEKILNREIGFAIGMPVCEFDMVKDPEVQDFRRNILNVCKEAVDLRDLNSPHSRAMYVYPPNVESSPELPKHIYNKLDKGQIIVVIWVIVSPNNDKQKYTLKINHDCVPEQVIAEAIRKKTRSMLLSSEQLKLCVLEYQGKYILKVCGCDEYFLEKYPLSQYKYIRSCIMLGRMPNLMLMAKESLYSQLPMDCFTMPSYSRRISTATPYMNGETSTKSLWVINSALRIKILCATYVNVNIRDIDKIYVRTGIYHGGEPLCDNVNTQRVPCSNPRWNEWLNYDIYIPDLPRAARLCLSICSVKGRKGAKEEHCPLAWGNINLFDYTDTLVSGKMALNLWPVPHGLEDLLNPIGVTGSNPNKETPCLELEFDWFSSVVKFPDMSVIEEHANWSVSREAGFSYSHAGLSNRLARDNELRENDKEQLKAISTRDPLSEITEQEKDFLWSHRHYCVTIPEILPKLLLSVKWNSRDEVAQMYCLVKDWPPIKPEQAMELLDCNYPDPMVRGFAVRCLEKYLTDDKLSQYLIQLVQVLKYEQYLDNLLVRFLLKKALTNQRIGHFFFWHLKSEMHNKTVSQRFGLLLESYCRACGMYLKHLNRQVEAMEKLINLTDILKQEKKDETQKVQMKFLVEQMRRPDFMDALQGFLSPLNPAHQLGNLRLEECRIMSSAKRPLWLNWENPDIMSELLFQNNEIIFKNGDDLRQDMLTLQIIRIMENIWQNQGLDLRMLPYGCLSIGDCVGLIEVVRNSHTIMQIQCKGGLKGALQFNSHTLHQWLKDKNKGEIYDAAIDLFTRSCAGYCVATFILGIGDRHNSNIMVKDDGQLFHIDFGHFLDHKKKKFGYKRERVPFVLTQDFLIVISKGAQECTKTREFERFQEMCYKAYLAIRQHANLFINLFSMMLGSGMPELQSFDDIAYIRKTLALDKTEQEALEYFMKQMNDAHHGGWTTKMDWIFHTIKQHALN
Sequence of Phosphatidylinositol 4,5-bisphosphate 3-kinase catalytic subunit beta isoform (P42338 whole entry, canonical isoform): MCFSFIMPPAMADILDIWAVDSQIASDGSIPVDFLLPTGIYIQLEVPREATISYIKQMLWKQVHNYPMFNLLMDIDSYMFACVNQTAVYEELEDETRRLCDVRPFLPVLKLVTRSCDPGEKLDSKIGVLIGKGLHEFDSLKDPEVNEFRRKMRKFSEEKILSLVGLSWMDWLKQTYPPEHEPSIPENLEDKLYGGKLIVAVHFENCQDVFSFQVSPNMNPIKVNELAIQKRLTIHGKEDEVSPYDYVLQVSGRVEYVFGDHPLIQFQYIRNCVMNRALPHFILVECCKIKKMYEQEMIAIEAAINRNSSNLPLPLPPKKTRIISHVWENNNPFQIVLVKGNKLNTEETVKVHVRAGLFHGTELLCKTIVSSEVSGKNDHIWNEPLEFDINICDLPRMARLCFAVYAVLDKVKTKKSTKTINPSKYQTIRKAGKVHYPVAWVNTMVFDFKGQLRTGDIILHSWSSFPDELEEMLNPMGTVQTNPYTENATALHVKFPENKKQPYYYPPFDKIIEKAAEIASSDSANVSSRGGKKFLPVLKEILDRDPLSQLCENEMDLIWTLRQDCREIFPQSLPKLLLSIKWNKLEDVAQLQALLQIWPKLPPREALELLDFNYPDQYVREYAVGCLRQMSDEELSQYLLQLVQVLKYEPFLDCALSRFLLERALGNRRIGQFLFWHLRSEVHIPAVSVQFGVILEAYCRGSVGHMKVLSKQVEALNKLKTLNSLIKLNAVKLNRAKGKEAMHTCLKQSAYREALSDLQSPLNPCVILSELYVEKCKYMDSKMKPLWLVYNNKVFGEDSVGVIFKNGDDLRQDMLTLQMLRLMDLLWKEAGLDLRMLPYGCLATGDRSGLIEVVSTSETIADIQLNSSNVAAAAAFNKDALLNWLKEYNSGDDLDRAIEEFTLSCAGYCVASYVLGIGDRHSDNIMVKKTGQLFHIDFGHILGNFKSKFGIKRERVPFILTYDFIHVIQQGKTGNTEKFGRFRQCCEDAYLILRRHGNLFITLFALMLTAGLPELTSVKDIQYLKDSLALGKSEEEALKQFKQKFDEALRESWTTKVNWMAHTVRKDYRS

Compound `Cn1c(=O)c2cc(S(=O)(=O)NC3CC3)ccc2n(C)c1=O` gave an inhibition in [1] of 40%. The compound also had an IC50 in [2] of 15.9 µM.

Take `Cn1c(=O)n(C)c2ccc3ccc4ccc1c2c43`: the inhibition in assay [1] is 80%; in assay [6], “Dose-Dependent Effect”; in assay [7], “Tde”; in assay [8], “Dose-Dependent Effect”; in assay [9], “Dose-Dependent Effect”. In addition, the 50% inhibitory concentration (IC50) in assay [2] came to 2.45 µM; in assay [3], 5.64 µM; in assay [4], 5.02 µM; in assay [5], 11.7 µM.

`Cn1c(=O)c2cc(S(N)(=O)=O)ccc2n(C)c1=O`: the inhibition in [1] is 55%. In assay [2], this compound returned a 50% inhibitory concentration (IC50) of 17.5 µM.
